What all share (assay): spectrophotometric GST assay, steady state
Common to all, as to assay type: biochemical
What all share (conditions): co-substrate GSH; pH and temperature not given; read-out: K m ^CDNB

One assay concerns the target T1, LmGSTE4 (Locusta migratoria, UniProt V9Q318).
T1 construct: gene GSTe4; full-length ORF in pET28a, E. coli BL21(DE3), His-tag Ni-NTA purified
T1 sequence (V9Q318 1-221): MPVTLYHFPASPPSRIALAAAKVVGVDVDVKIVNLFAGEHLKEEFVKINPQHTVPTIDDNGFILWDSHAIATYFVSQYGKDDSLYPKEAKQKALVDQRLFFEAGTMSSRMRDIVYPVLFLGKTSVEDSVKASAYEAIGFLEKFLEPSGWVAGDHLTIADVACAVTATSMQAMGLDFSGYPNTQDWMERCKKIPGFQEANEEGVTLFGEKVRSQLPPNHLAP
An excerpt:
spectrophotometric GST assay, steady state on LmGSTE4

The target of the next assay is T2, LmGSTE1 (Locusta migratoria, UniProt V9Q4G7).
T2 construct: gene GSTe1; full-length ORF in pET28a, E. coli BL21(DE3), His-tag Ni-NTA purified
T2 sequence (V9Q4G7 1-222): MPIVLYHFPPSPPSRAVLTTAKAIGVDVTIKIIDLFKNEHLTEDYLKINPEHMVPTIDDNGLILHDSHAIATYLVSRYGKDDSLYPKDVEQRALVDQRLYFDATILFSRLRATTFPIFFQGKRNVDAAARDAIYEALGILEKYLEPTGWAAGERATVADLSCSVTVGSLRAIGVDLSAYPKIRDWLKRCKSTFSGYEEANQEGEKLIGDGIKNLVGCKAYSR
An excerpt: spectrophotometric GST assay, steady state on LmGSTE1

A further assay concerns the target T3, LmGSTD3 (Locusta migratoria, UniProt V9Q4H6).
T3 construct: gene GSTd3; full-length ORF in pET28a, E. coli BL21(DE3), His-tag Ni-NTA purified
T3 sequence (V9Q4H6 1-222): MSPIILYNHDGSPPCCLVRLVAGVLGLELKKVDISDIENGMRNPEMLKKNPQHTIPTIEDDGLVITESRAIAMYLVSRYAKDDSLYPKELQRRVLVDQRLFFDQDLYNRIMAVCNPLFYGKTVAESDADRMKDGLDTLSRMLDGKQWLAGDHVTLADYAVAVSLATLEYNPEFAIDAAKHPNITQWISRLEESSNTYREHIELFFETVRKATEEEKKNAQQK
An excerpt: spectrophotometric GST assay, steady state on LmGSTD3

The next assay has as its target T4, LmGSTD5 (Locusta migratoria, UniProt V9Q4A2).
T4 construct: gene GSTd5; full-length ORF in pET28a, E. coli BL21(DE3), His-tag Ni-NTA purified
T4 sequence (V9Q4A2 1-224): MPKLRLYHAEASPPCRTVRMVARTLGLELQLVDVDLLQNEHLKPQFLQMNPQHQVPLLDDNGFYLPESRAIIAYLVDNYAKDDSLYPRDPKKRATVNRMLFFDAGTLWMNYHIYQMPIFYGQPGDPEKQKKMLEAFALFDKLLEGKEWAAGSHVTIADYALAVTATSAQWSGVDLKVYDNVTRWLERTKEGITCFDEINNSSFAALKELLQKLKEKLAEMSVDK
An excerpt: spectrophotometric GST assay, steady state on LmGSTD5

The next assay deals with T5, LmGSTS7 (Locusta migratoria, UniProt F4YUJ6).
T5 construct: full-length ORF in pET28a, E. coli BL21(DE3), His-tag Ni-NTA purified
T5 sequence (F4YUJ6 1-204): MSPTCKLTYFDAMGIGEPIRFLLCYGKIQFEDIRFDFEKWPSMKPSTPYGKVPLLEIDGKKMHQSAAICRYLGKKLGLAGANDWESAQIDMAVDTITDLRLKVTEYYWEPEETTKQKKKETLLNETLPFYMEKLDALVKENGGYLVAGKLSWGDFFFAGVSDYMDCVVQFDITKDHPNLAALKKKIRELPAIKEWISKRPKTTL
An excerpt:
spectrophotometric GST assay, steady state on LmGSTS7

For another assay, the target named is T6, LmGSTO2 (Locusta migratoria, UniProt I3QKS2).
T6 construct: gene GSTo2; full-length ORF in pET28a, E. coli BL21(DE3), His-tag Ni-NTA purified
T6 sequence (I3QKS2 1-245): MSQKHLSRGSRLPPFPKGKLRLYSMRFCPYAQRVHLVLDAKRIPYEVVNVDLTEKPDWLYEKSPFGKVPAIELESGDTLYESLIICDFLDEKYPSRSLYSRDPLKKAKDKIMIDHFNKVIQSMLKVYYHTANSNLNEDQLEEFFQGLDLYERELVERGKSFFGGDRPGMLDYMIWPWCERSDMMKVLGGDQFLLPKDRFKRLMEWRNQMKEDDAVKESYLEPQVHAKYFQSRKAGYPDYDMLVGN
An excerpt: spectrophotometric GST assay, steady state on LmGSTO2

The next assay addresses T7, LmGSTS5 (Locusta migratoria, UniProt F4YUJ4).
T7 construct: full-length ORF in pET28a, E. coli BL21(DE3), His-tag Ni-NTA purified
T7 sequence (F4YUJ4 1-202): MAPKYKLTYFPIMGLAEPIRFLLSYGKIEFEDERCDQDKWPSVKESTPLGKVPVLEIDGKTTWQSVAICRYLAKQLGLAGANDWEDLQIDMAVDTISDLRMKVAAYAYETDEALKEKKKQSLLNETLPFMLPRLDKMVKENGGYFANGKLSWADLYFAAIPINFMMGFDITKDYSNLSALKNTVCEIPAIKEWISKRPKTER
An excerpt:
spectrophotometric GST assay, steady state on LmGSTS5

The target in another assay is T8, LmGSTZ1 (Locusta migratoria, UniProt V9Q4A6).
T8 construct: gene GSTz1; full-length ORF in pET28a, E. coli BL21(DE3), His-tag Ni-NTA purified
T8 sequence (V9Q4A6 1-217): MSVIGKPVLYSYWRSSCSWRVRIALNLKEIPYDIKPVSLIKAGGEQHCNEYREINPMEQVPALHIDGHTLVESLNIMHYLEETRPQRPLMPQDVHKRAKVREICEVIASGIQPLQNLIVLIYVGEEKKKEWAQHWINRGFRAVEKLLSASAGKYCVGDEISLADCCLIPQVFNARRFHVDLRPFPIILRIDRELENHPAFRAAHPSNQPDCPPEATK
An excerpt:
spectrophotometric GST assay, steady state on LmGSTZ1

On to `O=[N+]([O-])c1ccc(Cl)c([N+](=O)[O-])c1` [CDNB], for which the Km at LmGSTE4 stood at 102 ± 8 µM; at LmGSTE1, 7 ± 1 µM; on LmGSTD3, 102 ± 10 µM; at LmGSTD5, 21 ± 1 µM; on LmGSTS7, 46 ± 1 µM; at LmGSTO2, 841 ± 138 µM. The Km at LmGSTS5 is 253 ± 26 µM; on LmGSTZ1, 452 ± 58 µM.

Source of the values: PMC4259467, “Molecular Cloning, Characterization and Positively Selected Sites of the Glutathione S-Transferase Family from Locusta migratoria” (PLoS ONE, 2014).
